Assay [1] concerns the target T1, human sGC α subunit and β subunit (Homo sapiens, UniProt Q02153).
T1 construct: expressed in transfected cells
T1 sequence (Q02153 1-619): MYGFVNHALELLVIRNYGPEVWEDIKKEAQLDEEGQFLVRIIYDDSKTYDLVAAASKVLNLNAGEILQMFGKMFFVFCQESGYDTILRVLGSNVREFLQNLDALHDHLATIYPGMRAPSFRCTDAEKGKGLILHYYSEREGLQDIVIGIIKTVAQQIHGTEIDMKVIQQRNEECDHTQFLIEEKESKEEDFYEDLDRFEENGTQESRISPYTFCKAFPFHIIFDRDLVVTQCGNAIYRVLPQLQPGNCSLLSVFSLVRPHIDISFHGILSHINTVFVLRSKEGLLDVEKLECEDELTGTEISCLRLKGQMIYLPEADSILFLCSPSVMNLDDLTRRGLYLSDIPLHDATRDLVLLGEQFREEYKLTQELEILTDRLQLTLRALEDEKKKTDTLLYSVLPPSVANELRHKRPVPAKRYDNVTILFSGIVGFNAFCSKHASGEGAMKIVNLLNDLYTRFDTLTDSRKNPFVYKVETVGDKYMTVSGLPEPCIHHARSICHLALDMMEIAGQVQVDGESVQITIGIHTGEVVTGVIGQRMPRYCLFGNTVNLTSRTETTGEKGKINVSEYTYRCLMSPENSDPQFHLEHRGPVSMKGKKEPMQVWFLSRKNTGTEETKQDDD
T1 sequence (Q02108 1-690 partner): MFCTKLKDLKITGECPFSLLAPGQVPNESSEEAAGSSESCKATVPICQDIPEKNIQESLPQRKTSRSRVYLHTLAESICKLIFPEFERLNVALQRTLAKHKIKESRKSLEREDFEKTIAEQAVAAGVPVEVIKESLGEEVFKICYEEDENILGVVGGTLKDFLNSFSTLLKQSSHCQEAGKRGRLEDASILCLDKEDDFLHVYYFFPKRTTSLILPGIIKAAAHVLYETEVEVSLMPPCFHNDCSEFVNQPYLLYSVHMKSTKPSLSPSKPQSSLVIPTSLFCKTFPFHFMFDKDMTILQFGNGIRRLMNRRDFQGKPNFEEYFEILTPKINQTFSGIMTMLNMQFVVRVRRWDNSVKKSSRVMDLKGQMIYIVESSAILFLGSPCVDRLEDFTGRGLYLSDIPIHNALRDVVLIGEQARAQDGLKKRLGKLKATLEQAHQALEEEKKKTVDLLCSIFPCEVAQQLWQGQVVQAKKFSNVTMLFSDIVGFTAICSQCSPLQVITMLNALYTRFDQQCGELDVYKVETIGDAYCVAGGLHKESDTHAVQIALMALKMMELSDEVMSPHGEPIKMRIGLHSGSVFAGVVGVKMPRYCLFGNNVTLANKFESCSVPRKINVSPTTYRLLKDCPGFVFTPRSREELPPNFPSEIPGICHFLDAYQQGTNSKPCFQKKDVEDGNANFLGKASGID
As to the kind of experiment: Maximum effect of sGC activating function (Ca2+ fluorescence in CHO-K1 cells expressing human sGC and mouse CNGA2). The class given is cell-based. As to conditions: increase ratio of sGC activity vs control solution at 10 μmol/L test compound. How it is done: (§1) For the assay, Chinese hamster ovary cells (CHO-K1 cells) in which human sGC α subunit and β subunit and mouse cyclic nucleotide gated channel (CNGA2) are stably expressed were used.
(§2) CHO-K1 cells in which human sGC and mouse CNGA2 are stably expressed were cultured at 37° C. in F-12 medium containing 10% (v/v) fetal bovine serum (FBS), penicillin (100 U/mL), streptomycin (100 μg/mL), G418 (250 μg/mL), and zeocin (250 μg/mL). The cells were suspended in the culture medium and seeded onto a 96-well plate, and then cultured at 37° C. for 24 hours. After washing with assay buffer 1 (140 mmol/L sodium chloride, 5 mmol/L potassium chloride, 0.5 mmol/L magnesium chloride, 0.01 mmol/L calcium chloride, 10 mmol/L glucose, 0.4 mmol/L magnesium sulfate, 10 mmol/L 4-(2-hydroxyethyl)piperazin-1-ylethane sulfonic acid, and 125 μmol/L sulfinpyrazone, pH 7.4), an indicator solution in which FURA2-AM as a fluorescent Ca^2+ indicator is dissolved at concentration of 5 μmol/L in assay buffer 1 was added followed by culture for 60 minutes at 37° C. The indicator solution was removed. After washing with assay buffer 1, the test compound solution was added and incubated for 10 minutes at room temperature. The plate was placed in a fluorometer (Flex Station II, Molecular Devices, LLC), and then the intracellular calcium concentration was measured as fluorescence intensity ratio which is obtained from each excitation wavelength (excitation wavelength of 340 nm and 380 nm and detection wavelength of 510 nm).
(§3) The test compound solution was prepared by dissolving each of the test compounds in DMSO to a concentration of 10 mmol/L, and then adding the assay buffer 2 (140 mmol/L sodium chloride, 5 mmol/L potassium chloride, 0.5 mmol/L magnesium chloride, 1 mmol/L calcium chloride, 10 mmol/L glucose, 0.4 mmol/L magnesium sulfate, 10 mmol/L 4-(2-hydroxyethyl)piperazin-1-ylethane sulfonic acid, 125 μmol/L sulfinpyrazone, 100 μmol/L isobutylmethylxanthine, 10 μmol/L 1H-[1,2,4]-oxadiazole[4,3-a]quinoxalin-1-one (hereinbelow, ODQ), pH 7.4) for dilution to have test concentration of 10 μmol/L. For the evaluation of a case in which ODQ is not contained, the same evaluation was performed except that ODQ is excluded from assay buffer 2. As a control solution, a DMSO solution was used instead of the test compound solution.
(§4) The activity of the test compound corresponds to the increase ratio (%) of the sGC activity at the time of adding the test compound solution with respect to the sGC activity at the time of adding the control solution, and it was calculated by dividing the fluorescence intensity ratio at the time of adding the test compound by the fluorescence intensity ratio of the control solution and subtracting the sGC activity (100%) at the time of adding the control solution.
In this assay, intracellular cGMP concentration increases as sGC is activated, and according to opening of CNGA2 following the increase of cGMP, intracellular Ca^2+ concentration increases. Thus, SGC activation can be measured by following the change in intracellular Ca^2+ concentration. […] Thus, in the absence of ODQ, the maximum sGC activating function including the heme-dependent activation can be evaluated while the heme-independent sGC activating function can be evaluated in the presence of ODQ.

Assay [2] concerns the target T1, human sGC α subunit and β subunit. The assay is described as follows: Heme-independent property of sGC activating function (EC50 ratio, CHO-K1 cells expressing human sGC and mouse CNGA2). As to conditions: EC50 in the absence of ODQ divided by EC50 in the presence of ODQ, sGC activation. The class given is cell-based. As to the method:
as §1, §2, §3, §4
For the representative compounds, activity was measured in the same manner as Test Example 1 at each test concentration of 0.0001, 0.001, 0.003, 0.01, 0.03, 0.1, 1, and 10 μmol/L.
The degree of heme-independent property of each test compound with regard to sGC activating function was obtained by dividing, for EC50 measured from the concentration-activation curve which has been established from the above, EC50 in the absence of ODQ by EC50 in the presence of ODQ. Specifically, the smaller the EC50 ratio is, the less the change in sGC activating function is, the change in the function being caused by the presence or absence of ODQ, and thus it is found to be more heme-independent.
EC50 value was obtained by measuring the activity of each compound to be tested at concentrations of 0.0001, 0.001, 0.003, 0.01, 0.03, 0.1, 1, and 10 μmol/L and performing the calculation using four-parameter logistics model using Assay Explorer (Accelrys).

Setting [3] is: ODQ not contained, read-out: Emax (%) ODQ− (Heme-dependent).
Where [4] appears, read: with 10 μmol/L ODQ, read-out: Emax (%) ODQ+ (Heme-independent).

Seven compounds from patent US9290440B2, “Bicyclic compound” (TOA EIYO LTD., priority 2012, dated 2016) can be followed below.

Molecules are shown by their SMILES. Like-named read-outs stand apart in the source and are kept apart here.

By Emax is commonly meant the maximal effect, on the per cent scale that the assay sets.

Consider `O=C(O)CCCCN(CCc1ccccc1OCc1ccc(CCc2ccccc2)cc1)C1CCOc2cc(C(=O)O)ccc21` (stereo not drawn) [Example 4, 4-{N-(4-Carboxybutyl)-N-[2-[2-[4-(2-phenylethyl)benzyloxy]phenyl]ethyl]amino}chromane-7-carboxylic acid], for which the Emax at 10 µM in assay [1] (setting [3]) worked out at 114%; in assay [1] (setting [4]) it was 109%. Besides, the “EC50 Ratio (ODQ−/ODQ+)” value in assay [2] is recorded as 2.85.

For the compound `O=C(O)CCCCN(CCc1ccccc1OCc1ccc(CCc2ccccc2)cc1)C1CCCc2nc(C(=O)O)ccc21` (stereo not drawn) [Example 6, 5-{N-(4-Carboxybutyl)-N-[2-[2-[4-(2-phenylethyl)benzyloxy]phenyl]ethyl]amino}-5,6,7,8-tetrahydroquinoline-2-carboxylic acid], the values for the maximal response (Emax) at 10 µM in assay [1] (setting [3]) and in assay [1] (setting [4]) were 126% and 99.9%, respectively. In assay [2], the “EC50 Ratio (ODQ−/ODQ+)” value is 0.87.

As to `O=C(O)CCCCN(CCc1ccccc1OCc1ccc(CCc2ccccc2)cc1)C1COc2cc(C(=O)O)ccc21` (stereo not drawn) [Example 7, 3-{N-(4-Carboxybutyl)-N-[2-[2-[4-(2-phenylethyl)benzyloxy]phenyl]ethyl]amino}-2,3-dihydrobenzofuran-6-carboxylic acid], the Emax at 10 µM was determined as 110% in assay [1] (setting [3]) and 108% in assay [1] (setting [4]). In assay [2], the “EC50 Ratio (ODQ−/ODQ+)” value stood at 2.34.

For `O=C(O)CCCCN(CCc1ccccc1OCc1ccc(CCc2ccccc2)cc1)C1COCc2cc(C(=O)O)ccc21` (stereo not drawn) [Example 8, 4-{N-(4-Carboxybutyl)-N-[2-[2-[4-(2-phenylethyl)benzyloxy]phenyl]ethyl]amino}-isochromane-7-carboxylic acid], the figures for the Emax at 10 µM in assay [1] (setting [3]) and in assay [1] (setting [4]) were 130% and 102%, respectively. Besides, the “EC50 Ratio (ODQ−/ODQ+)” value in assay [2] is reported as 1.80.

For `O=C(O)CCCCN(CCc1ccccc1OCc1ccc(OCc2ccccc2)cc1)C1CCCc2cc(C(=O)O)ccc21` (stereo not drawn) [Example 14, 5-{N-[2-[2-(4-Benzyloxybenzyloxyl)phenyl]ethyl]-N-(4-carboxybutyl)amino}-5,6,7,8-tetrahydronaphthalene-2-carboxylic acid], the Emax at 10 µM in assay [1] (setting [3]) is 99.1%; in assay [1] (setting [4]), 101%. Further, the “EC50 Ratio (ODQ−/ODQ+)” value in assay [2] is 1.73.

As for `O=C(O)CCCCN(CCc1ccccc1OCc1ccc(/C=C/C2CCCCC2)cc1)C1CCCc2cc(C(=O)O)ccc21` (stereo not drawn) [Example 23, 5-{N-(4-Carboxybutyl)-N-[2-[2-[4-((E)-2-cyclohexylethenyl)benzyloxy]phenyl]ethyl]amino}-5,6,7,8-tetrahydronaphthalene-2-carboxylic acid], the maximal effect (Emax) at 10 µM in assay [1] (setting [3]) stood at 126%; in assay [1] (setting [4]), 104%. The “EC50 Ratio (ODQ−/ODQ+)” value in assay [2] stood at 1.15.

As to `O=C(O)CCCCN(CCc1ccccc1OC[C@H]1CC[C@@H](CCc2ccccc2)CC1)C1CCCc2cc(C(=O)O)ccc21` (stereo partly drawn) [Example 27, 5-{N-(4-Carboxybutyl)-N-[2-[2-[cis-4-(2-phenylethyl)cyclohexylmethoxy]phenyl]ethyl]amino}-5,6,7,8-tetrahydronaphthalene-2-carboxylic acid], the Emax at 10 µM in assay [1] (setting [3]) came out at 113%; in assay [1] (setting [4]), 96.6%. Besides, the “EC50 Ratio (ODQ−/ODQ+)” value in assay [2] is recorded as 1.84.
